Assay results: US9937235B2, “Lipidated peptides as anti-obesity agents” (USTAV ORGANICKE CHEMIE A BIOCHEMIE AKADEMIE VED CR, V.V.I, priority 2012, dated 2018)
Where a SMILES comes first, the peptide text is derived from it. Where no end group is shown, it is not given here. [ ]: non-standard residue; d: D form. The star is where a group is joined. Phe(F5) = N[C@@H](Cc1c(F)c(F)c(F)c(F)c1F)C(=O)O; Palmitoyl = CCCCCCCCCCCCCCCC(=O)*; Myristoyl = CCCCCCCCCCCCCC(=O)*; Nle = CCCC[C@H](N)C(=O)O; Dap = NC[C@H](N)C(=O)O

Legend:
[1] = system: DIO C57BL/6 male mice; experiment: 14-day SC administration in diet-induced obese (DIO) mice; format: in vivo, mouse
Experimental: Inbred C57BL/6 male mice (AnLab, Prague, Czech Republic) were housed at a temperature of 23° C. under a daily cycle of 12 hours light and dark (light from 6:00 a.m.) with free access to water and food pellets (St-1, Mlýn Kocanda, Jesenice, Czech Republic).
At 8 weeks of age, mice were divided into a standard (St) diet-fed group (the energy content of the St-1 diet was 3.4 kcal/g, containing 25, 9, and 66% of calories from protein, fat, and carbohydrate, respectively (St-1, Mlýn Kocanda, Jesenice, Czech Republic)) and a high fat (HF) diet-fed group (the energy content of the HF diet was 5.3 kcal/g, containing 13, 60, and 27% of calories from protein, fat, and carbohydrate, respectively). […] Food intake and body weight were monitored weekly from 9 to 20 weeks of age. Mice resistant to the HF diet were withdrawn from the experiment (approximately 10% of mice).
At the age of 20 weeks, mice were placed into separate cages with free access to food and water. The following week, mice were subjected to a 14-day food intake experiment. They were injected with palm-PrRP31 or myr-PrRP20 dissolved in saline at doses of 5 mg/kg (n=10) or saline twice a day (at 8:00 and 18:00) for 14 days. Consumption of the St or HF diet and the weight of the mice were simultaneously followed.
After 14 days of treatment, mice were fasted overnight and sacrificed the following morning. Their blood sera were isolated, and the white adipose tissue (subcutaneous, abdominal, and gonadal), and the liver of all mice were dissected, weighed, and stored at −70° C. Fat to body weight ratio was calculated as a ratio of adipose tissue weight to body weight.
Serum insulin and leptin concentrations were measured by RIA assays. Serum glucose levels were measured using a Glucocard glucometer (Arkray, Kyoto, Japan). Serum triglyceride levels were measured by quantitative enzymatic reactions (Sigma, St. Louis, USA).
They were analyzed by a one-way ANOVA followed by a Dunnett post-hoc test (metabolic parameters, behavioral study) or two-way ANOVA followed by a Bonferroni post-hoc test (body weight evaluation) using Graph-Pad Software (San Diego, Calif., USA). P<0.05 was considered statistically significant.

[2] = system: fasted C57BL/6 mice; experiment: Food intake in fasted mice after SC administration; format: in vivo, mouse; details: fasted C57BL/6 mice, 5 mg/kg SC, 45 min
Outline: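 Male C57BL/6 mice, food-deprived 17 h, received saline, PrRP or lipidated analogs either SC at 1-10 mg/kg or ICV into the third ventricle at 4 nmol/mouse.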

[3] = molecular target: T1, rat PrRP receptor (GPR10) in RC-4B/C cells (Rattus norvegicus, UniProt Q64121); experiment: Competitive binding to rat pituitary RC-4B/C cells; details: rat RC-4B/C cells, Table 5; read-out: C-4B/C cells ^25I-rat PrRP31 Ki
T1 construct: host or cells: RC-4B/C rat pituitary cell line
T1 sequence (Q64121 1-370): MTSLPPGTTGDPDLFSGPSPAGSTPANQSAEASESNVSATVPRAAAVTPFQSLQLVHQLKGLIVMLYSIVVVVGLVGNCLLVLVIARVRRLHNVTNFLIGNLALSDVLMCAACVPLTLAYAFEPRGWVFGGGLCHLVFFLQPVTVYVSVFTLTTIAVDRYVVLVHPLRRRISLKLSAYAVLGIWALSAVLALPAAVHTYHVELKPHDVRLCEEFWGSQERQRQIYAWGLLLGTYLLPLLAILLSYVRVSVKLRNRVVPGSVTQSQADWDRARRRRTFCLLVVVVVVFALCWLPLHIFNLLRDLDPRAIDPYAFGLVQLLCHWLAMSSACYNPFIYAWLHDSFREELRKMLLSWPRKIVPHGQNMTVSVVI

[4] = molecular target: T2, human PrRP receptor, GPR10 (Homo sapiens, UniProt P49683); experiment: Competitive binding to CHO cells with transfected human GPR10; details: CHO cells with transfected human GPR10, human ^125I—PrRP31
T2 construct: host or cells: CHO cells
T2 sequence (P49683 1-370): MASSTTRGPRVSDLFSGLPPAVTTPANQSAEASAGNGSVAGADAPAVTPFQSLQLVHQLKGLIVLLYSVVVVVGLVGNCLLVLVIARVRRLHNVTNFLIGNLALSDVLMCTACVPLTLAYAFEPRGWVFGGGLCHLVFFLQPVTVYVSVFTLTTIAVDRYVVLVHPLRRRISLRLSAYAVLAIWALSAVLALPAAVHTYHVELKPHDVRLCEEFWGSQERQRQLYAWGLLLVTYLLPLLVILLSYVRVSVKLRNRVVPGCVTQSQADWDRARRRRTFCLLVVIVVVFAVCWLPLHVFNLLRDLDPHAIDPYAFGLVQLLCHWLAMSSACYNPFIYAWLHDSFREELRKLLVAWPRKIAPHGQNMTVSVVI
Experimental: Competitive binding experiments were performed according to Motulsky and Neubig (Motulsky, A., et al., “Analyzing radioligand binding data,” Curr Protoc Neurosci, Chapter 7, Unit 7.5, 2002).
CHO cells with transfected human PrRP receptor, GPR10 (Perkin Elmer, USA) were grown on 24-well plates coated with polyethyleneimine. The cells were grown to the optimal density of 40-80 thousand cells per well. The following agents were used for the experiment: binding buffer (25 mmol·l^−1 Tris, pH 7.4; 118 mmol·l^−1 NaCl, 10 mmol·l^−1 MgCl2, 1 mmol·l^−1 CaCl2, 5.5 mmol·l^−1 glucose, 0.5 mg/ml BSA), unlabelled analogs of PrRP of final concentration within 10^−11 to 10^−4 mol·l^−1, and human ^125I—PrRP31 of final concentration of 5×10^−11 mol·l^−1.
(§1) Plates were incubated for 60 minutes at room temperature. After incubation, the cells were solubilized in 0.1 mol/l solution of NaOH and the radioactivity bound to the cells was counted using a γ-counter. The experiments were performed in duplicate and repeated at least three times.
For evaluation of competitive binding experiments, the program Graph Pad Prism Software (San Diego, Calif., USA) was used. A method of nonlinear regression assuming one-site binding was used.

[5] = molecular target: T3, rat PrRP receptor in RC-4B/C cells (rat, UniProt Q64121 1-370); experiment: competition with 125I-rat PrRP31 on RC-4B/C cells; Ki by Cheng-Prusoff
T3 construct: whole, on cells; also called the rat receptor; GPR10
T3 sequence (looked up): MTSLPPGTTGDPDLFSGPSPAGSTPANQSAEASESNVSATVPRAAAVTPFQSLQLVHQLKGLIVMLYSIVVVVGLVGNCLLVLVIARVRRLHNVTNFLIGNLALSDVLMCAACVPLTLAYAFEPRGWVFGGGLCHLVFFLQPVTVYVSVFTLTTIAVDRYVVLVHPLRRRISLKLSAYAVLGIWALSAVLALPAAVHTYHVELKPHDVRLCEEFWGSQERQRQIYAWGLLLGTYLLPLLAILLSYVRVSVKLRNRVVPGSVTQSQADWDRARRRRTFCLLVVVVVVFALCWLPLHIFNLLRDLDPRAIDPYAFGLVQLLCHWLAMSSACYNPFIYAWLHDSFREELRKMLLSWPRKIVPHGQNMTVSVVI
Experimental: The rat pituitary cell line RC-4B/C (ATCC, Manassas, USA) was grown on 24-well plates which had their bottom coated with polyethyleneimine. The cells were grown to the optimal density of 300-450 thousand per well.
as §1

[6] = 5 mg/kg SC twice a day, 14 days, 17 h fasted DIO male mice
[7] = serum, 5 mg/kg SC twice a day, 14 days, 17 h fasted DIO male mice

Molecule: Myr-PrRP20: myristoylated PrRP20 given to DIO mice; analog number (rat 10 or human 13/55) not stated (Myristoyl-TPDINPAWYASRGIRPVGRF-NH2; ends and bridges not checked; UniProt P81277 34-53, looked up)
- Fat/body weight [%] [1, 6]: 15.30 ± 0.42%
- Liver/body weight [%] [1, 6]: 3.60 ± 0.18 %
- Body weight of DIO mice ([1]; 5 mg/kg SC twice per day for 14 days, FIG. 9): significantly decreased
- Glucose [1, 7]: 7.52 ± 0.16 mmol/L
- Insulin [1, 7]: 3.54 ± 0.47 ng/mL
- Leptin [1, 7]: 39.56 ± 3.47 ng/mL
- Triglycerides [1, 7]: 68.71 ± 4.16 mg/dL

Molecule: CCCCCCCCCCCCCCCC(=O)N[C@@H](CO)C(=O)N[C@@H](CCCNC(=N)N)C(=O)N[C@@H](C)C(=O)N[C@@H](Cc1c[nH]cn1)C(=O)N[C@@H](CCC(N)=O)C(=O)N[C@@H](Cc1c[nH]cn1)C(=O)N[C@@H](CO)C(=O)N[C@@H](CCCC)C(=O)N[C@@H](CCC(=O)O)C(=O)N[C@H](C(=O)N[C@@H](CCCNC(=N)N)C(=O)N[C@H](C(=O)N1CCC[C@H]1C(=O)N[C@@H](CC(=O)O)C(=O)N[C@H](C(=O)N[C@@H](CC(N)=O)C(=O)N1CCC[C@H]1C(=O)N[C@@H](C)C(=O)N[C@@H](Cc1c[nH]c2ccccc12)C(=O)N[C@@H](Cc1ccc(O)cc1)C(=O)N[C@H](C(=O)NCC(=O)N[C@@H](CCCNC(=N)N)C(=O)NCC(=O)N[C@H](C(=O)N[C@@H](CCCNC(=N)N)C(=O)N1CCC[C@H]1C(=O)N[C@H](C(=O)NCC(=O)N[C@@H](CCCNC(=N)N)C(=O)N[C@@H](Cc1c(F)c(F)c(F)c(F)c1F)C(N)=O)C(C)C)[C@@H](C)CC)[C@@H](C)O)[C@@H](C)CC)[C@@H](C)O)[C@@H](C)O [Analog 33] (Palmitoyl-SRAHQHS[Nle]ETRTPDINPAWYTGRGIRPVGR[Phe(F5)]-NH2)
- Food intake in mice (5 mg/kg SC) % saline-treated group (45 min) [2]: 41%
- Ki [3]: 0.51 ± 0.08 nM
- Ki [4]: 1.92 ± 0.53 nM

B1: analog no. 12 (peptide)
peptide: [Dap](Myristoyl)RTHRHS[Nle]EIRTPDINPAWYASRGIRPVGRF-NH2
modifications: N-terminus assumed
SMILES: CCCCCCCCCCCCCC(=O)NC[C@H](N)C(=O)N[C@@H](CCCNC(=N)N)C(=O)N[C@H](C(=O)N[C@@H](Cc1c[nH]cn1)C(=O)N[C@@H](CCCNC(=N)N)C(=O)N[C@@H](Cc1c[nH]cn1)C(=O)N[C@@H](CO)C(=O)N[C@@H](CCCC)C(=O)N[C@@H](CCC(=O)O)C(=O)N[C@H](C(=O)N[C@@H](CCCNC(=N)N)C(=O)N[C@H](C(=O)N1CCC[C@H]1C(=O)N[C@@H](CC(=O)O)C(=O)N[C@H](C(=O)N[C@@H](CC(N)=O)C(=O)N1CCC[C@H]1C(=O)N[C@@H](C)C(=O)N[C@@H](Cc1c[nH]c2ccccc12)C(=O)N[C@@H](Cc1ccc(O)cc1)C(=O)N[C@@H](C)C(=O)N[C@@H](CO)C(=O)N[C@@H](CCCNC(=N)N)C(=O)NCC(=O)N[C@H](C(=O)N[C@@H](CCCNC(=N)N)C(=O)N1CCC[C@H]1C(=O)N[C@H](C(=O)NCC(=O)N[C@@H](CCCNC(=N)N)C(=O)N[C@@H](Cc1ccccc1)C(N)=O)C(C)C)[C@@H](C)CC)[C@@H](C)CC)[C@@H](C)O)[C@@H](C)CC)[C@@H](C)O
notes: analog of human PrRP31
- Ki [5]: 4.13 nM
